*1 amine or outer side, *2 acyl side, *3 side chain or, on linkers, in order; H or OH if unused. Where a SMILES comes first, the peptide text is derived from it. [ ]: non-standard residue; d: D form. X2 = N=C(NCCC[C@H](N[*:1])C(=O)[*:2])NCCC[C@H]1O[C@@H](n2cnc3c(N)ncnc32)[C@H](O)[C@@H]1O; Gly(N-(CH2)3-guanidino) = N=C(N)NCCCNCC(=O)O; X1 = N=C(CCl)NCCCN(CC(=O)[*:2])[*:1]; Gly(N-CH2CH2OH) = O=C(O)CNCCO; Nleu = CC(C)CNCC(=O)O; Nlys = NCCCCNCC(=O)O; Sar = CNCC(=O)O
What was measured:
[1] = molecular target: Protein arginine N-methyltransferase 5 (Homo sapiens, UniProt O14744); experiment: Inhibition of PRMT5 (unknown origin)
[2] = molecular target: T1, Histone-arginine methyltransferase CARM1 (Homo sapiens, UniProt Q86X55); experiment: Inhibition of PRMT4 (unknown origin)
T1 sequence (Q86X55 whole entry): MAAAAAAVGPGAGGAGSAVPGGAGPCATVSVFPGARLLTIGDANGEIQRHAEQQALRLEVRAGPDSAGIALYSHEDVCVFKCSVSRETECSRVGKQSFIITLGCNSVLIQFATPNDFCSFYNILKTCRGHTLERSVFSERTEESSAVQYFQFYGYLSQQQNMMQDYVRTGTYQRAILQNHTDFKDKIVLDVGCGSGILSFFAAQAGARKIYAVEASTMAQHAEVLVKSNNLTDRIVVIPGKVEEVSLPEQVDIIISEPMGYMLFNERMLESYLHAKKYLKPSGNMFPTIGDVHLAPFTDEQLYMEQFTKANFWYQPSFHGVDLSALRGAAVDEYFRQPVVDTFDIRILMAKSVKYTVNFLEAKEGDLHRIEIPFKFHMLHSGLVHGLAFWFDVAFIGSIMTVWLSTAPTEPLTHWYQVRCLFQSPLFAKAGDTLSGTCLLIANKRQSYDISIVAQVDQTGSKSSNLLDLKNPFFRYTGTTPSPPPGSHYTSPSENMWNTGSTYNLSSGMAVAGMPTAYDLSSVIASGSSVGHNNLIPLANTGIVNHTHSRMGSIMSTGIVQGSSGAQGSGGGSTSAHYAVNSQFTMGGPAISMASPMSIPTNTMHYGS

[3] = molecular target: T2, Protein arginine N-methyltransferase 7 (Homo sapiens, UniProt Q9NVM4); experiment: Inhibition of PRMT7 (unknown origin)
T2 sequence (Q9NVM4 whole entry): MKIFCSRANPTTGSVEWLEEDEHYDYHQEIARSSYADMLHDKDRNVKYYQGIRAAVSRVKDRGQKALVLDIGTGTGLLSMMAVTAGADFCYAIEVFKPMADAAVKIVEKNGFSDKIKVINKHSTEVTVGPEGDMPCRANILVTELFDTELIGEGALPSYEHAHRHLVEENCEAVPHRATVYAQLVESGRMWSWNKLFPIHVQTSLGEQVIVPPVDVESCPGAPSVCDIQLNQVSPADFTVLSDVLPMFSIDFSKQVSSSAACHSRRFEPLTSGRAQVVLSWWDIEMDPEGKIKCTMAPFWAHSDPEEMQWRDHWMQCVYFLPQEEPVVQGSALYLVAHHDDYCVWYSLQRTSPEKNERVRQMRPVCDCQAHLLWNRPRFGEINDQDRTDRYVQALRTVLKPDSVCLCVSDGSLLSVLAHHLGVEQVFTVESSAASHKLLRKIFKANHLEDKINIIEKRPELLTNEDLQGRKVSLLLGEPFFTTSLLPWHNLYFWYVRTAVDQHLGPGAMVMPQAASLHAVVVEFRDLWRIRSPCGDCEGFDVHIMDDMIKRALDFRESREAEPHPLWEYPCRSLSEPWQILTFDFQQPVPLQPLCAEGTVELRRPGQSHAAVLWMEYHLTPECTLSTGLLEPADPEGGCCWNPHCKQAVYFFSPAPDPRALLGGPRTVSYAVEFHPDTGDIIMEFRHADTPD

[4] = molecular target: T3, Protein arginine N-methyltransferase 1 (Homo sapiens, UniProt Q99873); experiment: Inhibition of PRMT1 (unknown origin)
[5] = molecular target: Protein arginine N-methyltransferase 6 (Homo sapiens, UniProt Q96LA8); experiment: Inhibition of PRMT6 (unknown origin)
MDA-MB-468 = experiment: Cytotoxicity against human MDA-MB-468 cells assessed as reduction in cell viability incubated for 72 hrs by cell-titer blue assay; format: functional, cell-based; conditions: MDA-MB-468, 72 h
HCT-116 = experiment: Cytotoxicity against human HCT-116 cells assessed as reduction in cell viability; format: functional, cell-based
[6] = molecular target: T3, Protein arginine N-methyltransferase 1; experiment: Inhibition of 6His-tagged PRMT1 (11 to 353 residues) (unknown origin) extracted from Escherichia coli BL21 (DE3) cells
[7] = molecular target: T3, Protein arginine N-methyltransferase 1; experiment: Inhibition of human PRMT1 assessed as methyltransferase activity using Histone H4 /H4 (1-15)-Biotin as substrate
[8] = molecular target: T3, Protein arginine N-methyltransferase 1; experiment: Inhibition of His-tagged PRMT1 (unknown origin) extracted from Escherichia coli BL21 (DE3) cells

T3 sequence (Q99873 whole entry): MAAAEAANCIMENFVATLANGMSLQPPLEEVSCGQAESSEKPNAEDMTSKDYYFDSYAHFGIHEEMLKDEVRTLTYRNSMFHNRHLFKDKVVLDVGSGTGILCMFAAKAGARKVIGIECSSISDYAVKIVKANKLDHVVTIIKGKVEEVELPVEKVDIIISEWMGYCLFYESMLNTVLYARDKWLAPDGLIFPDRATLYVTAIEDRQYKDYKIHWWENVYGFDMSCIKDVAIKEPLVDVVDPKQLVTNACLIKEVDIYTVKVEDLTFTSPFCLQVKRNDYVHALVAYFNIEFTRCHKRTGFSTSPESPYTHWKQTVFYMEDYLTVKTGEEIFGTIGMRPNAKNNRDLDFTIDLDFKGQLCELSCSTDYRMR
Sequence of Protein arginine N-methyltransferase 5 (O14744 whole entry): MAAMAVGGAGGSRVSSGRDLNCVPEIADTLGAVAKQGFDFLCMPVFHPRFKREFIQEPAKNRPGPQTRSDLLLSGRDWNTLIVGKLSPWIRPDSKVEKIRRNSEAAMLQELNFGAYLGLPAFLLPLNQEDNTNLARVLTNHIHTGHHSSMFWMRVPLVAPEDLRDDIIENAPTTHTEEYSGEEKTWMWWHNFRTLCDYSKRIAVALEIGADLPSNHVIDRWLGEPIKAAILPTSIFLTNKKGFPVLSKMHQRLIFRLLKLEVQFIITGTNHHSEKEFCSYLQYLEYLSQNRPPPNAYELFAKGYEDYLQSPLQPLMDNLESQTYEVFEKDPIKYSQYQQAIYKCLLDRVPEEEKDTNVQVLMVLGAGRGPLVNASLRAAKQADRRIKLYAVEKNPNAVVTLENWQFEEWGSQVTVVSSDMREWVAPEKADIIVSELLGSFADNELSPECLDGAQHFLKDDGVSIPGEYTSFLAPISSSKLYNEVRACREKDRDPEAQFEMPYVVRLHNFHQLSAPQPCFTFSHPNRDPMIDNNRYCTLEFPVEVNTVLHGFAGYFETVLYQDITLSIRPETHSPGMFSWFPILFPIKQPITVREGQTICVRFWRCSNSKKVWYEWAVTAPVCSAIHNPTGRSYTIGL
Sequence of Protein arginine N-methyltransferase 6 (Q96LA8 whole entry): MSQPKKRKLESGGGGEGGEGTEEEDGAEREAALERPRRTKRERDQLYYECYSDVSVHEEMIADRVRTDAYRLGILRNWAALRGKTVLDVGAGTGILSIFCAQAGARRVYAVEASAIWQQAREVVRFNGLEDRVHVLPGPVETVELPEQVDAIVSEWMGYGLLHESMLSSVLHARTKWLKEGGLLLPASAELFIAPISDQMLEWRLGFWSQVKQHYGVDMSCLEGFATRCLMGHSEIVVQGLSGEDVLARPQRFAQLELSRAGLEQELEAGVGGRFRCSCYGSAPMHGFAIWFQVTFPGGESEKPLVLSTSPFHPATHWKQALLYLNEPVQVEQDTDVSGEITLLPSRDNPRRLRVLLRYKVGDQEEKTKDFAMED

N=C(N)NCCC[C@H](NC(=O)CN)C(=O)N[C@@H](CCCNC(=N)NCCCSC[C@H]1O[C@@H](n2cnc3c(N)ncnc32)[C@H](O)[C@@H]1O)C(N)=O
IC50 [1]: 0.0004 µM | IC50 [2]: 0.0028 µM | IC50 [3]: 0.0004 µM | IC50 [4]: 5.9 µM

CC(=O)N[C@@H](CO)C(=O)NCC(=O)N[C@@H](CCCNC(=N)NCCC[C@H]1O[C@@H](n2cnc3c(N)ncnc32)[C@H](O)[C@@H]1O)C(=O)NCC(=O)N[C@@H](CCCCN)C(=O)NCC(=O)NCC(=O)N[C@@H](CCCCN)C(N)=O (Ac-SG[X2]GKGGK-NH2)
IC50 [5]: 11 µM | IC50 [4]: 5.36 µM

CC(C)CN(CC(=O)NCC(=O)N(CCCCN)CC(=O)NCC(=O)NCC(=O)N(C)CC(=O)N(CCCCN)CC(N)=O)C(=O)CNC(=O)CN(CCCCN)C(=O)CNC(=O)CNC(=O)CN(CCCCN)C(=O)CNC(=O)CN(CCCNC(=N)CCl)C(=O)CNC(=O)CNCCO (H-[Gly(N-CH2CH2OH)]G[X1]G[Nlys]GG[Nlys]G[Nleu]G[Nlys]GG[Sar][Nlys]-NH2)
IC50 (MDA-MB-468): > 500 µM | IC50 (HCT-116): > 500 µM

NS(=O)(=O)c1ccc(CCNC/C=C/c2ccccc2)cc1
IC50 [6]: 26.2 µM

N=C(NCCCSC[C@H]1O[C@@H](n2cnc3c(N)ncnc32)[C@H](O)[C@@H]1O)NCCC[C@H](N)C(N)=O
IC50 [4]: 3 µM

CC(=O)N(CCO)CC(=O)NCC(=O)N(CCCNC(=N)CCl)CC(=O)NCC(=O)N(CCCCN)CC(=O)NCC(=O)NCC(=O)N(CCCCN)CC(=O)NCC(=O)N(CC(=O)NCC(=O)N(CCCCN)CC(=O)NCC(=O)NCC(=O)N(C)CC(=O)N(CCCCN)CC(N)=O)CC(C)C (Ac-[Gly(N-CH2CH2OH)]G[X1]G[Nlys]GG[Nlys]G[Nleu]G[Nlys]GG[Sar][Nlys]-NH2)
IC50 (MDA-MB-468): > 500 µM | IC50 (HCT-116): > 500 µM | IC50 [7]: 8.73 µM

O=C1Nc2cnc(Nc3ccc(N4CCC(O)CC4)cc3)nc2N2c3ccccc3C[C@@H]12
IC50 [8]: 0.27 µM

CC(C)CN(CC(=O)NCC(=O)N(CCCCN)CC(=O)NCC(=O)NCC(=O)N(C)CC(=O)N(CCCCN)CC(N)=O)C(=O)CNC(=O)CN(CCCCN)C(=O)CNC(=O)CNC(=O)CN(CCCCN)C(=O)CNC(=O)CN(CCCNC(=N)N)C(=O)CNC(=O)CNCCO (H-[Gly(N-CH2CH2OH)]G[Gly(N-(CH2)3-guanidino)]G[Nlys]GG[Nlys]G[Nleu]G[Nlys]GG[Sar][Nlys]-NH2)
IC50 [4]: 396 µM

From ChEMBL document CHEMBL6092152, “Overview of PRMT1 modulators: Inhibitors and degraders” (Eur J Med Chem, 2024)
